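Protocol summary: plate cells (96-well), add compound at 5 concentrations, incubate 48 h, interpolate endpoints linearly. GI50 = concentration required for 50% inhibition of growth. TGI is the concentration that stops growth completely.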
Assays:
Test in all cases: inhibition of tumour cell growth, NCI panel, 48 h
A549 NSCLC = test system: A549 NSCLC
A498 renal = test system: A498 renal
NCI-H226 lung = test system: NCI-H226 lung
HOP-62 NSCLC = test system: HOP-62 NSCLC
HT29 colon = test system: HT29 colon
SF-539 CNS = test system: SF-539 CNS
SNB-19 CNS = test system: SNB-19 CNS
KM12 colon = test system: KM12 colon
OVCAR-3 ovarian = test system: OVCAR-3 ovarian
CAKI-1 renal = test system: CAKI-1 renal

## CC(=O)Oc1ccc(C2OC(c3ccc4ccccc4c3OC(C)=O)=NN2C(C)=O)c(OC(C)=O)c1 (stereo not given)
A549 NSCLC
  GI50: 0.412 µM
  TGI: > 48.5 µM
A498 renal
  GI50: 1.73 µM
  TGI: 17.5 µM
NCI-H226 lung
  GI50: 0.515 µM
  TGI: > 38.9 µM
HOP-62 NSCLC
  GI50: 0.513 µM
  TGI: > 100 µM
HT29 colon
  GI50: 1.62 µM
  TGI: > 52.8 µM
SF-539 CNS
  GI50: 0.342 µM
  TGI: 12.3 µM
SNB-19 CNS
  GI50: 0.56 µM
  TGI: > 100 µM
KM12 colon
  GI50: 0.536 µM
  TGI: > 57.6 µM
OVCAR-3 ovarian
  GI50: 0.354 µM
  TGI: 26.1 µM
CAKI-1 renal
  GI50: 0.24 µM
  TGI: 5.44 µM

## CO/N=C(/C)COc1ccc2c(c1)oc(=O)c1cc(OC)ccc12
A549 NSCLC
  GI50: > 100 µM
  TGI: > 100 µM
A498 renal
  GI50: > 100 µM
  TGI: > 100 µM
NCI-H226 lung
  GI50: > 100 µM
  TGI: > 100 µM
HOP-62 NSCLC
  GI50: 95.3 µM
  TGI: > 100 µM
HT29 colon
  GI50: > 100 µM
  TGI: > 100 µM
SF-539 CNS
  GI50: > 100 µM
  TGI: > 100 µM
SNB-19 CNS
  GI50: > 100 µM
  TGI: > 100 µM
KM12 colon
  GI50: > 100 µM
  TGI: > 100 µM
OVCAR-3 ovarian
  GI50: > 100 µM
  TGI: > 100 µM
CAKI-1 renal
  GI50: 97.6 µM
  TGI: > 100 µM

## CCN1CCN(Cc2ccc(Nc3ncc(F)c(-c4cc(F)c5nc(C)n(C(C)C)c5c4)n3)nc2)CC1
A549 NSCLC
  GI50: 0.411 µM
  TGI: 11.9 µM
A498 renal
  GI50: 1.05 µM
  TGI: 50 µM
NCI-H226 lung
  GI50: 0.109 µM
  TGI: 25.2 µM
HOP-62 NSCLC
  GI50: 6.68 µM
  TGI: 13.8 µM
HT29 colon
  GI50: 0.268 µM
  TGI: 10.8 µM
SF-539 CNS
  GI50: 7.39 µM
  TGI: 15.7 µM
SNB-19 CNS
  GI50: 5.48 µM
  TGI: 12.4 µM
KM12 colon
  GI50: 0.56 µM
  TGI: 9.29 µM
OVCAR-3 ovarian
  GI50: 6.34 µM
  TGI: 13.5 µM
CAKI-1 renal
  GI50: 0.187 µM
  TGI: 7.51 µM

## CC(C)(C)N1CC1CNC(=O)C(=O)NCC1CN1C(C)(C)C (stereo not given)
A549 NSCLC
  TGI: 21.1 µM
A498 renal
  TGI: > 6.04 µM
NCI-H226 lung
  TGI: 18.7 µM
HOP-62 NSCLC
  TGI: 3.68 µM
HT29 colon
  TGI: 19.1 µM
SF-539 CNS
  TGI: 13.7 µM
SNB-19 CNS
  TGI: > 25.5 µM
KM12 colon
  TGI: 12.3 µM
OVCAR-3 ovarian
  TGI: 46.1 µM
CAKI-1 renal
  TGI: > 96.1 µM

## Nc1c(C(=O)Nc2cccc(Cl)c2)sc2nc3c(cc12)C(O)CCC3 (stereo not given)
A549 NSCLC
  GI50: 0.465 µM
  TGI: 17.4 µM
A498 renal
  GI50: 0.182 µM
  TGI: 13.6 µM
NCI-H226 lung
  GI50: 2.68 µM
  TGI: 38.1 µM
HOP-62 NSCLC
  GI50: 0.569 µM
  TGI: 23.9 µM
HT29 colon
  GI50: 0.315 µM
  TGI: 12.2 µM
SF-539 CNS
  GI50: 0.275 µM
  TGI: 0.965 µM
SNB-19 CNS
  GI50: 4.35 µM
  TGI: 99.4 µM
KM12 colon
  GI50: 0.397 µM
  TGI: > 49.9 µM
OVCAR-3 ovarian
  GI50: 0.311 µM
  TGI: 1.22 µM
CAKI-1 renal
  GI50: 0.432 µM
  TGI: 30.4 µM

## CC(C)n1cc(-c2ccc3c(c2)N(C)CC3)c2c(NS(=O)(=O)c3ccn(C)n3)ccnc21
A549 NSCLC
  GI50: 44 µM
  TGI: > 100 µM
A498 renal
  GI50: 36.3 µM
  TGI: > 100 µM
NCI-H226 lung
  GI50: 39.4 µM
  TGI: > 100 µM
HOP-62 NSCLC
  GI50: > 100 µM
  TGI: > 100 µM
HT29 colon
  GI50: 71.9 µM
  TGI: > 100 µM
SF-539 CNS
  GI50: 64.4 µM
  TGI: > 100 µM
SNB-19 CNS
  GI50: > 100 µM
  TGI: > 100 µM
KM12 colon
  GI50: 47.9 µM
  TGI: > 100 µM
OVCAR-3 ovarian
  GI50: 60.4 µM
  TGI: > 100 µM
CAKI-1 renal
  GI50: 44.3 µM
  TGI: > 100 µM

## O=C(/C=C(/C=C/c1cccc2[nH]ccc12)OB(F)F)/C=C/c1cccc2[nH]ccc12
A549 NSCLC
  GI50: 1.62 µM
  TGI: 14.2 µM
A498 renal
  GI50: 1.7 µM
  TGI: 3.42 µM
NCI-H226 lung
  GI50: 1.87 µM
  TGI: 5.59 µM
HOP-62 NSCLC
  GI50: 2.31 µM
  TGI: 9.4 µM
HT29 colon
  GI50: 0.516 µM
  TGI: 3.92 µM
SF-539 CNS
  GI50: 2.16 µM
  TGI: 5.86 µM
SNB-19 CNS
  GI50: 1.44 µM
  TGI: 4.16 µM
KM12 colon
  GI50: 0.949 µM
  TGI: 2.54 µM
OVCAR-3 ovarian
  GI50: 0.353 µM
  TGI: 1.23 µM
CAKI-1 renal
  GI50: 0.876 µM
  TGI: 3.13 µM

## C[n+]1cccc(NC(=O)c2ccc3ccc4ccc(C(=O)Nc5ccc[n+](C)c5)nc4c3n2)c1
A549 NSCLC
  GI50: 0.155 µM
  TGI: > 100 µM
A498 renal
  GI50: 7.14 µM
  TGI: > 28 µM
NCI-H226 lung
  GI50: 0.121 µM
  TGI: 0.693 µM
HOP-62 NSCLC
  GI50: 1.83 µM
  TGI: 97.5 µM
HT29 colon
  GI50: 2.38 µM
  TGI: > 100 µM
SF-539 CNS
  GI50: 3.33 µM
  TGI: 15.6 µM
SNB-19 CNS
  GI50: 1.61 µM
  TGI: > 27 µM
KM12 colon
  GI50: 3.08 µM
  TGI: > 100 µM
OVCAR-3 ovarian
  GI50: 4.3 µM
  TGI: > 100 µM
CAKI-1 renal
  GI50: 4.93 µM
  TGI: > 100 µM

## CNC(=O)/C=C/C1=CN2C(=O)c3ccc(C)c(O)c3NC(OC)C2C1 (stereo not given)
A549 NSCLC
  TGI: > 100 µM
A498 renal
  TGI: 0.713 µM
NCI-H226 lung
  TGI: 0.0731 µM
HOP-62 NSCLC
  TGI: 0.328 µM
HT29 colon
  TGI: 3.29 µM
SF-539 CNS
  TGI: < 0.0176 µM
SNB-19 CNS
  TGI: 27.6 µM
KM12 colon
  TGI: < 0.0183 µM
OVCAR-3 ovarian
  TGI: 0.417 µM
CAKI-1 renal
  TGI: 2.63 µM

## CCOC(=O)c1c(C)n([O-])c2cc(F)c(F)cc2[n+]1=O
A549 NSCLC
  GI50: 6.78 µM
  TGI: 26 µM
A498 renal
  GI50: 15.9 µM
  TGI: 30 µM
NCI-H226 lung
  GI50: 1.94 µM
  TGI: 3.94 µM
HOP-62 NSCLC
  GI50: 2.1 µM
  TGI: 3.74 µM
HT29 colon
  GI50: 0.516 µM
  TGI: 3.19 µM
SF-539 CNS
  GI50: 3.91 µM
  TGI: 8.84 µM
SNB-19 CNS
  GI50: 1.53 µM
  TGI: 2.86 µM
KM12 colon
  GI50: 15.4 µM
  TGI: 35.6 µM
OVCAR-3 ovarian
  GI50: 1.1 µM
  TGI: 2.42 µM
CAKI-1 renal
  GI50: 1.63 µM
  TGI: 3.04 µM

## CS(=O)(=O)N1CCC(Nc2ncc(C(=O)c3c(F)cccc3F)c(N)n2)CC1
A549 NSCLC
  GI50: 6.14 µM
  TGI: > 25 µM
A498 renal
  GI50: 9.15 µM
  TGI: > 25 µM
NCI-H226 lung
  GI50: 7.27 µM
  TGI: > 25 µM
HOP-62 NSCLC
  GI50: 12.6 µM
  TGI: > 25 µM
HT29 colon
  GI50: 10.1 µM
  TGI: > 25 µM
SF-539 CNS
  GI50: 9.36 µM
  TGI: > 25 µM
SNB-19 CNS
  GI50: 6.45 µM
  TGI: > 25 µM
KM12 colon
  GI50: 8.67 µM
  TGI: > 25 µM
OVCAR-3 ovarian
  GI50: 13.7 µM
  TGI: > 25 µM
CAKI-1 renal
  GI50: 8.76 µM
  TGI: > 25 µM

## CC1=C2CC[C@@]3(C)C(=CCC3O)C2(C)CCC1=O (stereo not given in full)
A549 NSCLC
  TGI: > 100 µM
A498 renal
  TGI: > 100 µM
NCI-H226 lung
  TGI: > 100 µM
HOP-62 NSCLC
  TGI: > 100 µM
HT29 colon
  TGI: > 100 µM
SF-539 CNS
  TGI: > 100 µM
SNB-19 CNS
  TGI: > 100 µM
KM12 colon
  TGI: > 100 µM
OVCAR-3 ovarian
  TGI: > 100 µM
CAKI-1 renal
  TGI: > 100 µM

## COc1cccc(C(=O)NNc2nc(Cl)nc(N3CCN(C(c4ccccc4)c4ccccc4)CC3)n2)c1
A549 NSCLC
  GI50: 22.1 µM
  TGI: 83.6 µM
A498 renal
  GI50: 14.1 µM
  TGI: 40.2 µM
NCI-H226 lung
  GI50: 17 µM
  TGI: 38 µM
HOP-62 NSCLC
  GI50: 8.71 µM
  TGI: 23.5 µM
HT29 colon
  GI50: 2.12 µM
  TGI: 4.8 µM
SF-539 CNS
  GI50: 2.08 µM
  TGI: 4.3 µM
SNB-19 CNS
  GI50: 1.88 µM
  TGI: 3.98 µM
KM12 colon
  GI50: > 100 µM
  TGI: > 100 µM
OVCAR-3 ovarian
  GI50: 1.72 µM
  TGI: 3.28 µM
CAKI-1 renal
  GI50: 1.87 µM
  TGI: 4.31 µM

Source: PubChem BioAssay (NCI)
